What all share (type): ADME, organism-based
Settings in all cases: in vivo; call rule not given here

In series [1] the test system is Brain. Briefly: Drug uptake in mouse brain at 30 mg/kg, po. Also noted: dose 30 mg/kg, route oral.
Series [2] has as its system Plasma. Briefly: Drug uptake in mouse plasma at 3 mg/kg, po. Also noted: dose 3 mg/kg, route oral.
Series [3] deals with Plasma. Briefly: Drug uptake in mouse plasma at 30 mg/kg, po. On the set-up: dose 30 mg/kg, route oral.
The subject of series [4] is Brain. Briefly: Drug uptake in mouse brain at 10 mg/kg, po. Also noted: dose 10 mg/kg, route oral.
In series [5] the test system is Plasma. Briefly: Drug uptake in mouse plasma at 10 mg/kg, po. On the set-up: dose 10 mg/kg, route oral.
In series [6] the test system is Brain. Briefly: Drug uptake in mouse brain at 3 mg/kg, po. Also noted: dose 3 mg/kg, route oral.

With `CNCC1(c2ccc(Cl)c(Cl)c2)CCCCC1`, in the series on Brain [1], the Drug uptake entry is given as “Active”.

Take `CNCC1(c2ccc(Cl)c(Cl)c2)CCCCC1.Cl`: the Drug uptake in the series with Brain [1] was determined as 7464 ng/g; in the series with Plasma [2] it was 11 ng/mL; in the series on Plasma [3] it was 227 ng/mL; with Brain [4], 2166 ng/g; in the series on Plasma [5] it was 50 ng/mL; with Brain [6], 546 ng/g.

For the compound `CNCC1(c2ccc3ccccc3c2)CCCCC1.Cl`, the Drug uptake in the series on Brain [1] was determined as 2175 ng/g; in the series on Plasma [2], 8 ng/mL; in the series on Plasma [3], 120 ng/mL; in the series on Brain [4] it was 306 ng/g; in the series on Plasma [5] it was 21 ng/mL; with Brain [6] it was 123 ng/g.

Values taken from ChEMBL document CHEMBL1681686, “Discovery of N-methyl-1-(1-phenylcyclohexyl)methanamine, a novel triple serotonin, norepinephrine, and dopamine reuptake inhibitor” (Bioorg Med Chem Lett, 2011).
